This passage reports GI50 and TGI results from PubChem BioAssay (NCI).

Among the test systems are NCI-H226 lung; OVCAR-3 ovarian; SF-539 CNS; HOP-62 NSCLC; UACC-62 melanoma; IGROV1 ovarian; ACHN renal; M14 melanoma; SN12C renal; SNB-75 CNS.
What all share (test): NCI-60 cell line screen, 48 h

Values joined by “and” are separate entries in the source; they are usually repeats but may differ in a detail not shown here. Identical values can stand only once.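 96-well plates; 48 h exposure; 5 concentrations. Endpoints by linear interpolation between flanking doses. Not reached: highest tested concentration assigned. GI50 marks 50% less growth. At the TGI there is no net growth.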 Bounds are passed on as bounds.

As for `Cc1ccc(C(=O)N(CCCN)[C@@H](c2nc3cc(Cl)ccc3c(=O)n2Cc2ccccc2)C(C)C)cc1`, the GI50 was 325 nM with NCI-H226 lung; less than 0.01 µM in the test on OVCAR-3 ovarian; less than 10 nM in the test with SF-539 CNS; < 10 nM and 10 nM with HOP-62 NSCLC; less than 10 nM in the test with UACC-62 melanoma; less than 0.0336 µM in the test with IGROV1 ovarian. Moreover, the GI50 was 798 nM in the test on ACHN renal, less than 0.01 µM in the test with M14 melanoma, less than 0.01 µM with SN12C renal and less than 10 nM in the test on SNB-75 CNS. Also, the TGI in the test on NCI-H226 lung was 2.25 µM and 2.5 µM; in the test with SF-539 CNS it was 1.38 µM and 0.654 µM; in the test with HOP-62 NSCLC it was 2.07 µM and 2.09 µM; in the test on UACC-62 melanoma, 1.91 µM and 1.57 µM; in the test on IGROV1 ovarian it was 2.09 µM; in the test on ACHN renal, 2.38 µM and 2.15 µM. The TGI in the test on M14 melanoma is less than 0.01 µM; with SN12C renal, 2.28 µM and 1.83 µM; in the test on SNB-75 CNS, 1.56 µM and 1.37 µM.
Take `Cc1[nH]ncc1-c1cc2nc(C3CC4CCN3CC4)[nH]c(=O)c2s1` (centres undefined): the GI50 with NCI-H226 lung was 2820 nM; in the test with OVCAR-3 ovarian, 3.74 µM; in the test with SF-539 CNS it was 1470 nM; in the test on HOP-62 NSCLC, 2830 nM; in the test with UACC-62 melanoma it was 3280 nM; in the test with IGROV1 ovarian, 3.47 µM. Also, the GI50 in the test with ACHN renal was 1880 nM; in the test with M14 melanoma it was 4.49 µM; with SN12C renal, 3.31 µM; in the test with SNB-75 CNS it was 1010 nM. The TGI in the test with NCI-H226 lung is greater than 100 µM; in the test on OVCAR-3 ovarian, greater than 100 µM; in the test on SF-539 CNS, 7.74 µM; with HOP-62 NSCLC, greater than 100 µM; with UACC-62 melanoma it was 17.6 µM; with IGROV1 ovarian, greater than 100 µM. For the same molecule, the TGI with ACHN renal is greater than 100 µM; in the test with M14 melanoma, 83.5 µM; in the test on SN12C renal it was greater than 100 µM; in the test on SNB-75 CNS it was 9.55 µM.
`O=C(/C=C/c1ccc(B(O)O)cc1)/C=C/c1ccc(B(O)O)cc1`: the GI50 in the test with NCI-H226 lung is 3230 nM; in the test with OVCAR-3 ovarian, 3.11 µM; with SF-539 CNS, 2030 nM; in the test on HOP-62 NSCLC, 10300 nM; with UACC-62 melanoma it was 1730 nM; in the test with IGROV1 ovarian it was 3.46 µM. In addition, the GI50 was 3660 nM in the test on ACHN renal, 2.23 µM in the test with M14 melanoma, 3.22 µM with SN12C renal and 3480 nM in the test on SNB-75 CNS. Besides, the TGI in the test with NCI-H226 lung came to 16.1 µM; in the test on OVCAR-3 ovarian, 9.27 µM; in the test with SF-539 CNS, 5.35 µM; in the test with HOP-62 NSCLC it was 22 µM; with UACC-62 melanoma, 4.41 µM; in the test on IGROV1 ovarian, 13.3 µM. Besides, the TGI in the test on ACHN renal came out at 13.8 µM; in the test on M14 melanoma, 5.9 µM; in the test with SN12C renal, 13.9 µM; in the test with SNB-75 CNS, 14.9 µM.
`Cc1ccccc1NC(=S)Nc1ccccn1`: the GI50 is greater than 100000 nM in the test on NCI-H226 lung; greater than 100 µM in the test on OVCAR-3 ovarian; greater than 100000 nM with SF-539 CNS; greater than 100000 nM with HOP-62 NSCLC; greater than 100000 nM with UACC-62 melanoma; greater than 100 µM in the test with IGROV1 ovarian. In addition, the GI50 is greater than 100000 nM in the test on ACHN renal, greater than 100 µM with M14 melanoma, greater than 100 µM in the test on SN12C renal and greater than 100000 nM in the test on SNB-75 CNS. Also, the TGI in the test on NCI-H226 lung, in the test with OVCAR-3 ovarian, in the test with SF-539 CNS, with HOP-62 NSCLC, in the test with UACC-62 melanoma and in the test with IGROV1 ovarian was greater than 100 µM each time. Also, the TGI with ACHN renal, in the test on M14 melanoma, in the test with SN12C renal and with SNB-75 CNS was greater than 100 µM each time.
